Structures can show the parent of a compound that is named as a salt. Where two headings read alike, the source gives them in different places.
Legend:
Diarrhoeic activity = assay: Diarrhoeic activity; parameters: species or system mice; settings: mouse, in vivo; oral route; dose which causes diarrhoea in 50% of the animals; read-out: DE50 (the source's name)
Procedure: The test is carried out on male mice (CD1 Charles Rivers) weighing […], after fasting for 6 hours. The product dissolved at 5% in methocel is administered by oral route by means of an oesophage probe.
Control animals receive only the excipient.
After treatment, the animals are placed separately in cages of which the base is covered with blotting paper, and they are put under observation for 30, 60, 120 and 180 minutes.
The sheets of absorbent paper are changed after each observation.
The consistency of the feces is evaluated according to the method of Randall and Baruth (Arch. Int. Pharmacodyn. 220, 94, 1976) according to the following scale of values.
1: feces slightly soft, with or without a damp halo
2: feces slightly soft, with a well defined circle of humidity.
3: feces soft with a large circle of humidity.
4: feces without consistency with a very large circle of humidity.
For each product, the dose is noted which causes diarrhoea in 50% of the animals according to the method of Miller and Tainter (Proc. Soc. Exp. Biol. Med., 57, 261, 1944).

[1] = tested on: ileum isolated from guinea-pig; assay: Test of ileum isolated from guinea-pig, agonist (contracting) activity; settings: Cavia porcellus; negative logarithm of the dose which produces 50% of the maximum effect; read-out: pD2 (converted)
Procedure: Pieces of ileum are removed from guinea-pigs killed by decapitation. The isolated ileum is placed in 10 cm^3 of Tyrode solution at 37° C. and aerated with a mixture of oxygen (95%) and carbon dioxide gas (5%). The contractions due to the products are registered by means of a detector connected to a polygraph. The products to be tested are added at concentrations between 1.10^-3 M and 1.10^-8 M/l.
The products presenting a contracting effect are tested vis-a-vis atropine and hexamethonium in order to establish if the activity is of "muscarine" or "nicotine" type.
The agonist activity is expressed in pD2 (negative logarithm of the dose which produces 50% of the maximum effect).

[2] = tested on: male mice (CD1 Charles RAivers); assay: Variation of the body temperature (duration of action); assay type: in vivo
Procedure: (§1) The test is carried out on male mice (CD1 Charles RAivers) weighing 25-30 g, having fasted for 6 hours.
The temperature of the body is noted by means of a thermocouple inserted about 1.5 cm in the rectum and connected to an electric temperature recorder. […]
The duration of action of the products is determined, using the doses able to reduce the temperature by 1° to 1.5° C.

Acute toxicity, oral = assay: Acute toxicity, oral; parameters: species or system mice; settings: mouse, in vivo, mortality during 7 days
Procedure: The test was carried out on male mice (CD1 Charles Rivers), of 22 to 24 g, having fasted for 16 hours. […] The mortality is noted during the 7 days following the treatment.

[3] = tested on: male mice (CD1 Charles RAivers); assay: Hypothermic activity; assay type: in vivo; settings: Mus musculus, read-out: Effective dose (-1° C.)
Procedure: as §1
The temperature of the body is noted by means of a thermocouple inserted about 1.5 cm in the rectum and connected to an electric temperature recorder.
The products are administered by oral or sub-cutaneous route and the temperatures are noted at the instant 0 and at 30 minutes, 1 hour, 2 hours and 2 and a half hours after treatment.
The degree of hypothermia is evaluated as the difference between the treated animals and the controls, and the dose necessary to reduce the body temperature by 1° C. is noted.

Solubility = assay type: physicochemical; settings: for Solubility in water: H2O
[4] = tested on: central cholinergic system; settings: cited from earlier work
[5] = tested on: patients having a memory defect; settings: injected by intravenous route; cited from earlier work

SMILES | ED50 (Diarrhoeic activity) [mg/kg] | EC50 [1] [µM] | LD50 at 168 h (Acute toxicity, oral) [mg/kg] | ED (-1 C) ([3]; O.R. (oral route)) [mg/kg] | ED (-1 C) ([3]; SC.R (sub-cutaneous route)) [mg/kg] | Solubility in 2N HCl (Solubility) | Solubility in 2N NaOH (Solubility) | Solubility in water (Solubility) | further results
CON=CC1=CCCN(OC(C)=O)C1 [Example 3, Hydrochloride of the methyl ether of 1-acetoxy-1,2,5,6-tetrahydropyridin-3-carboxaldehyde oxime] | 0.5 | 12.6 | 100 | 0.22 | 0.2 | soluble | insoluble | insoluble | Variations of the body temperature ([2]; os, 0.25 mg/kg, 30 min): -1.2 °C; Variations of the body temperature ([2]; os, 0.25 mg/kg, 60 min): -0.7 °C; Variations of the body temperature ([2]; os, 0.25 mg/kg, 120 min): +0.1 °C; Variations of the body temperature ([2]; os, 0.25 mg/kg, 180 min): +0.1 °C; Variations of the body temperature ([2]; sc, 0.25 mg/kg, 30 min): -1.2 °C; Variations of the body temperature ([2]; sc, 0.25 mg/kg, 60 min): -0.8 °C; Variations of the body temperature ([2]; sc, 0.25 mg/kg, 120 min): +0.1 °C; Variations of the body temperature ([2]; sc, 0.25 mg/kg, 180 min): +0.1 °C
C#CCON=CC1=CCCN(O)C1 [Example 4, Hydrochloride of the propargyl ether of 1-hydroxy-1,2,5,6-tetrahydropyridin-3-carboxaldehyde oxime] | 0.9 | 5.75 | 80 | 0.48 | 0.49 | Soluble | Soluble | Soluble | Variations of the body temperature ([2]; os, 0.75 mg/kg, 30 min): -1.6 °C; Variations of the body temperature ([2]; os, 0.75 mg/kg, 60 min): -1.0 °C; Variations of the body temperature ([2]; os, 0.75 mg/kg, 180 min): -0.1 °C; Variations of the body temperature ([2]; sc, 0.75 mg/kg, 30 min): -1.4 °C; Variations of the body temperature ([2]; sc, 0.75 mg/kg, 60 min): -1.1 °C; Variations of the body temperature ([2]; sc, 0.75 mg/kg, 120 min): -0.1 °C
COC(=O)C1=CCCN(C)C1 [arecoline] | 35 | 0.331 | – | – | – | – | – | – | duration of action ([4]; in vivo): short duration of action; activity by oral route ([4]; oral route): very weak activity; effect on patients having a memory defect [5]: positive effect

Reference: patent US4902699A, “Oxime of 1, 2, 5, 6-tetrahydropyridine compounds their use as medicaments and the compositions containing them” (Roussel Uclaf, priority 1987, dated 1990)
